pIC50: −log10 of the molar value.
Tests used:
CDK2/CycE = target: T1, CDK2/CycE (Homo sapiens, UniProt P24941); assay: CDK2/CycE kinase assay (HTRF); format: biochemical; details: 10 μM ATP
T1 construct: GST; purchased ProQinase GmbH, Freiburg; host or cells: baculovirus-infected insect cells (Sf9)
Procedure: The CDK2/CycE inhibitory activity of the substances of this invention was measured in the CDK2/CycE-HTRF assay (HTRF=Homogeneous Time Resolved Fluorescence) described in the following paragraphs.
Recombinant CDK2-GST and CycE-GST fusion proteins purified from baculovirus-infected insect cells (Sf9) were purchased from ProQinase GmbH, Freiburg. The substrate used for the kinase reaction was the biotinylated peptide biotin-Ttds-YISPLKSPYKISEG (C terminus in amide form) which can be purchased for example from JERINI Peptide Technologies (Berlin).
CDK2/CycE was incubated in the presence of various concentrations of test substances in 5 μL of assay buffer [50 mM Tris/HCl pH 8.0, 10 mM MgCl2, 1.0 mM dithiothreitol, 0.1 mM sodium orthovanadate, 10 μM adenosine triphosphate (ATP), 0.75 μM substrate, 0.01% (v/v) Nonidet-P40 (Sigma), 1% (v/v) dimethyl sulphoxide] at 22° C. for 60 min. The concentration of CDK2/CycE was adapted to the particular activity of the enzyme and adjusted so that the assay operated in the linear range. Typical concentrations were in the region of 1 ng/ml. The reaction was stopped by adding 5 μl of a solution of HTRF detection reagents (0.2 μM streptavidin-XLent and 3.4 nM phospho-(Ser) CDKs substrate antibody [product #2324B, Cell Signaling Technology, Danvers, Mass., USA] and 4 nM Prot-A-EuK [protein A labelled with Europium cryptate from C is biointernational, France, product No. 61 PRAKLB]) in aqueous EDTA solution (100 mM EDTA, 800 mM KF, 0.2% (w/v) bovine serum albumin (BSA) in 100 mM HEPES/NaOH pH 7.0).
(§1) The resulting mixture was incubated at 22° C. for 1 h in order to allow formation of a complex of the biotinylated phosphorylated substrate and the detection reagents. The amount of phosphorylated substrate was then estimated by measuring the resonance energy transfer from the Prot-A-EuK to the streptavidin-XLent. For this purpose, the fluorescence emissions at 620 nm and 665 nm after excitation at 350 nm were measured in an HTRF measuring instrument, e.g. a Rubystar (BMG Labtechnologies, Offenburg, Germany) or a Viewlux (Perkin-Elmer). The ratio of the emissions at 665 nm and at 622 nm was taken as a measure of the amount of phosphorylated substrate. The data were normalized (enzymic reaction without inhibitor=0% inhibition, all other assay components but no enzyme=100% inhibition) and IC50 values were calculated with a 4-parameter fit using an inhouse software.

KDR kinase = target: T2, KDR kinase (Homo sapiens, UniProt P35968); assay: KDR kinase assay (HTRF); format: biochemical; details: KDR kinase-GST, 10 μM ATP
T2 construct: GST; purchased ProQinase GmbH, Freiburg; host or cells: baculovirus-infected insect cells (Sf9)
Procedure: The KDR-inhibitory activity of the substances of this invention was measured in the KDR-HTRF assay (HTRF=Homogeneous Time Resolved Fluorescence) described in the following paragraphs.
Recombinant KDR kinase-GST fusion protein purified from baculovirus-infected insect cells (Sf9) was purchased from ProQinase GmbH, Freiburg. The substrate used for the kinase reaction was the biotinylated peptide biotin-Ahx-DFGLARDMYDKEYYSVG (C terminus in acid form) which can be purchased for example from Biosynthan GmbH (Berlin-Buch, Germany).
KDR kinase was incubated in the presence of various concentrations of test substances in 5 μL of assay buffer [50 mM Hepes/NaOH pH 7.0, 25 mM MgCl2, 5 mM MnCl2, 1.0 mM dithiothreitol, 0.1 mM sodium orthovanadate, 10 μM adenosine triphosphate (ATP), 0.5 μM substrate, 0.001% (v/v) Nonidet-P40 (Sigma), 1% (v/v) dimethyl sulphoxide] at 22° C. for 45 min. The concentration of KDR was adapted to the particular activity of the enzyme and adjusted so that the assay operated in the linear range. The reaction was stopped by adding 5 μl of a solution of HTRF detection reagents (0.1 μM streptavidin-XLent and 2 nM PT66-Eu chelate, a Europium chelate-labelled anti-phospho-tyrosine antibody from Perkin Elmer) in aqueous EDTA solution (125 mM EDTA, 0.2% (w/v) bovine serum albumin (BSA) in 50 mM HEPES/NaOH pH 7.0).
as §1, with “of” for “of a complex of”, “streptavidin-XLent and PT66-Eu chelate.” for “detection reagents.”, “PT66-Eu chelate” for “Prot-A-EuK”

[1] = system: human MCF7 breast tumour cells; assay: MCF7 proliferation assay; format: cell-based; details: 96 h, 4 days incubation, crystal violet staining
Procedure: Cultivated human MCF7 breast tumour cells (ATCC HTB-22) were plated out in a density of 5000 cells/measurement point in 200 μl of growth medium (RPMI1640, 10% foetal calf serum, 2 mU/mL insulin, 0.1 nM oestradiol) in a 96-well multititre plate. After 24 hours, the cells from a plate (zero plate) were stained with crystal violet (see below), while the medium in the other plates was replaced by fresh culture medium (200 μl) to which the test substances had been added in various concentrations (0 μM, and in the range 0.01-30 μM; the final concentration of the solvent dimethyl sulphoxide was 0.5%). The cells were incubated in the presence of the test substances for 4 days. The cell proliferation was determined by staining the cells with crystal violet: the cells were fixed by adding 20 μl/measurement point of an 11% strength glutaraldehyde solution at room temperature for 15 min. After the fixed cells had been washed three times with water, the plates were dried at room temperature. The cells were stained by adding 100 μl/measurement point of a 0.1% strength crystal violet solution (pH adjusted to pH 3 by adding acetic acid). After the stained cells had been washed three times with water, the plates were dried at room temperature. The dye was dissolved by adding 100 μl/measurement point of a 10% strength acetic acid solution, and the extinction was determined by photometry at a wavelength of 595 nm. The percentage change in cell growth was calculated by normalizing the measurements to the extinctions of the zero point plate (=0%) and the extinction of the untreated (0 μM) cells (=100%). The IC50 values were determined by means of a 4-parameter fit using the company's own software.

T2 sequence (P35968 807-1356 limits assumed): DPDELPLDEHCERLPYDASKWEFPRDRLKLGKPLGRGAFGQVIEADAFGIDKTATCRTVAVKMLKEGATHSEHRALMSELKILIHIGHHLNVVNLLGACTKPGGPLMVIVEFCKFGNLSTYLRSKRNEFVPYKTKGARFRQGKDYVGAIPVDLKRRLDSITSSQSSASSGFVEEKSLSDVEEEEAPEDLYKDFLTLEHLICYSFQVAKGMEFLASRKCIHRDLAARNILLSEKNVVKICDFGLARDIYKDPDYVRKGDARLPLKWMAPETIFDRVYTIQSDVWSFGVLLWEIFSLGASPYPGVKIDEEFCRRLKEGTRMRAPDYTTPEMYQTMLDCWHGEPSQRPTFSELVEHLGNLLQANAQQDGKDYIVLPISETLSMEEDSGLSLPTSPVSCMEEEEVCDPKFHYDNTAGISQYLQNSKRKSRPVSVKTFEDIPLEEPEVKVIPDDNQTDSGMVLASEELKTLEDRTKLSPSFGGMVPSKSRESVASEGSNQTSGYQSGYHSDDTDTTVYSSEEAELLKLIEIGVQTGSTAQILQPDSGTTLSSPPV

Compound | pIC50 (CDK2/CycE) | pIC50 (KDR kinase) | pIC50 [1]
C[C@@H](O)[C@@H](C)Oc1nc(Nc2ccc(Nc3nccc(NCCN(C)C)n3)cc2)ncc1Br [Example 18] | 8.23 | 6.85 | 6.77
C[C@@H](O)[C@@H](C)Oc1nc(Nc2ccc(Nc3nccc(N(C)C)n3)cc2)ncc1Br [Example 17] | 8.36 | 7.21 | 7.01
C[C@@H](O)[C@@H](C)Oc1nc(Nc2ccc(Nc3nccc(OCCO)n3)cc2)ncc1Br [Example 8, (2R,3R)-3-(5-Bromo-2-{4-[4-(2-hydroxyethoxy)pyrimidin-2-ylamino]-phenylamino}pyrimidin-4-yloxy)butan-2-ol] | 8.55 | 7.36 | 7.52
Cc1cnc(Nc2ccc(Nc3ncc(Br)c(O[C@H](C)[C@@H](C)O)n3)cc2)nc1NCCO [Example 19] | 8.66 | 7.00 | 6.54
C[C@@H](O)[C@@H](C)Oc1nc(Nc2ccc(Nc3nccc(N)n3)cc2)ncc1Br [Example 16] | 8.70 | 7.08 | 6.38
C[C@@H](O)[C@@H](C)Oc1nc(Nc2ccc(Nc3ncccn3)cc2)ncc1Br [Example 15] | 8.54 | 7.13 | 7.05
C[C@@H](O)[C@@H](C)Oc1nc(Nc2ccc(Nc3ncc(Cl)c(NCCO)n3)cc2)ncc1Br [Example 21] | 8.66 | 7.14 | 7.04
COc1ccnc(Nc2ccc(Nc3ncc(Br)c(O[C@H](C)[C@@H](C)O)n3)cc2)n1 [Example 22] | 8.32 | 6.92 | 6.89

Next, values leading:

pIC50 (CDK2/CycE) | pIC50 (KDR kinase) | pIC50 [1] | Compound
5.24 | 7.68 | 5.70 | CC(=O)NCCNc1nc(Nc2cccc(Nc3ncc(Br)c(NCCNC(C)=O)n3)c2)ncc1Br [Example 30]
8.18 | 7.30 | 6.57 | C[C@@H](O)[C@@H](C)Nc1nc(Nc2ccc(Oc3cccnc3)cc2)ncc1Br [Example 33]
8.21 | 6.62 | 7.00 | C[C@@H](O)[C@@H](C)Oc1nc(Nc2ccc(Nc3ncc(Br)cn3)cc2)ncc1Br [Example 24]
8.04 | 7.00 | – | C[C@@H](O)[C@@H](C)Nc1nc(Nc2ccc(Oc3ncccn3)cc2)ncc1Br [Example 34]
6.59 | < 4.70 | < 5.52 | CSc1nc(Nc2ccc(Nc3ccccn3)cc2)ncc1Br [Example 29]
6.43 | 5.14 | < 5.52 | C[C@@H](O)[C@@H](C)Sc1nc(Nc2ccc(Nc3ncc(Cl)c(NCCO)n3)cc2)ncc1Br [Example 44]
8.62 | 7.49 | 7.48 | C[C@@H](O)[C@@H](C)Oc1nc(Nc2cccc(Nc3nccc(OCCO)n3)c2)ncc1Br [Example 27]
8.89 | 7.39 | – | C[C@@H](O)[C@@H](C)Nc1nc(Nc2ccc(Sc3nncn3C)cc2)ncc1Br [Example 39]
8.70 | 7.12 | 6.57 | C[C@@H](O)[C@@H](C)Oc1nc(Nc2cccc(Nc3ncccn3)c2)ncc1Br [Example 25]

— patent publication US20080176866A1, “NOVEL HETARYL-PHENYLENEDIAMINE-PYRIMIDINES AS PROTEIN KINASE INHIBITORS” (priority 2006, published 2008)
